Measured values published in ChEMBL document CHEMBL1201862, “PubChem BioAssay data set” (2004).
Values joined by “and” are separate entries in the source; they are usually repeats but may differ in a detail not shown here. Identical values can stand only once.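 Step 1: Grow cells in 96-well plates. Step 2: Expose to compound for 48 hours at 5 concentrations. Step 3: Interpolate endpoints linearly; if unreached, use highest concentration. GI50 marks 50% less growth.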 Active and inactive are the calls of the source. Rule as the data show it: active = GI50 up to about 1.1 µM and inactive = higher.

What was measured:
Experiment in all cases: NCI-60 cell line screen, 48 h
786-0 = tested on: 786-0
DU-145 = tested on: DU-145
HCT-116 = tested on: HCT-116
IGROV-1 = tested on: IGROV-1
K562 = tested on: K562
LOX IMVI = tested on: LOX IMVI
M14 = tested on: M14
MCF7 = tested on: MCF7
MDA-N = tested on: MDA-N
NCI-H522 = tested on: NCI-H522
NCI/ADR-RES = tested on: NCI/ADR-RES
PC-3 = tested on: PC-3
SF-295 = tested on: SF-295
SK-MEL-5 = tested on: SK-MEL-5
SNB-19 = tested on: SNB-19
T47D = tested on: T47D
UACC-257 = tested on: UACC-257
UO-31 = tested on: UO-31
Hs-578T = tested on: Hs-578T

| SMILES | GI50 (786-0) | GI50 (DU-145) | GI50 (HCT-116) | GI50 (IGROV-1) | GI50 (K562) | GI50 (LOX IMVI) | GI50 (M14) | GI50 (MCF7) | GI50 (MDA-N) | GI50 (NCI-H522) | GI50 (NCI/ADR-RES) | GI50 (PC-3) | GI50 (SF-295) | GI50 (SK-MEL-5) | GI50 (SNB-19) | GI50 (T47D) | GI50 (UACC-257) | GI50 (UO-31) | GI50 (Hs-578T) |
| --- | --- | --- | --- | --- | --- | --- | --- | --- | --- | --- | --- | --- | --- | --- | --- | --- | --- | --- | --- |
| S=C(Nc1ccccn1)Nc1ccccc1Cl | > 67.5 µM (inactive) | > 100 µM (inactive) | > 71.9 µM (inactive) | > 36.1 µM (inactive) | > 100 µM (inactive) | > 100 µM (inactive) | > 100 µM (inactive) | 5.98 µM (inactive) | > 100 µM (inactive) | 14.7 µM (inactive) | > 67.5 µM (inactive) | > 84.5 µM (inactive) | > 64.9 µM (inactive) | 42.4 µM (inactive) | 27 µM (inactive) | 67.8 µM (inactive) | > 72.9 µM (inactive) | > 100 µM (inactive) |  |
| CC1=C(/C=C/C(C)=C/C=C/C(C)=C/C=C/C=C(C)/C=C/C=C(C)/C=C/C2=C(C)C(=O)C(O)CC2(C)C)C(C)(C)CC(O)C1=O (stereo not drawn) | > 100 µM (inactive) |  | > 100 µM (inactive) | > 100 µM (inactive) | > 100 µM (inactive) | > 100 µM (inactive) | > 100 µM (inactive) |  |  | > 100 µM (inactive) |  |  | > 100 µM (inactive) | > 100 µM (inactive) | > 100 µM (inactive) |  | > 100 µM (inactive) | > 100 µM (inactive) |  |
| CC(=O)CCC(=O)C(=[N+]=[N-])S(=O)(=O)c1ccccc1 | > 100 µM (inactive) | > 100 µM (inactive) | > 100 µM (inactive) | > 100 µM (inactive) | > 100 µM (inactive) | > 100 µM (inactive) | > 100 µM (inactive) | > 100 µM (inactive) | > 100 µM (inactive) | 45.8 µM (inactive) | > 100 µM (inactive) | > 100 µM (inactive) | > 100 µM (inactive) | > 100 µM (inactive) | > 100 µM (inactive) |  | > 100 µM (inactive) | > 100 µM (inactive) | > 100 µM (inactive) |
| C=CCn1c(-c2cc(C(C)(C)C)c(O)c(C(C)(C)C)c2)cs/c1=N\C(P(=O)(O)O)P(=O)(O)O | 36.8 µM (inactive) | > 100 µM (inactive) | 14.7 µM (inactive) | > 100 µM (inactive) | > 100 µM (inactive) |  | > 100 µM (inactive) | > 100 µM (inactive) |  |  | > 100 µM (inactive) | > 100 µM (inactive) | > 100 µM (inactive) |  | > 100 µM (inactive) | > 100 µM (inactive) |  | > 100 µM (inactive) | > 100 µM (inactive) |
| O=c1c(/C=C/c2c(O)ccc3ccccc23)nnc2sc(-c3cccc([N+](=O)[O-])c3)nn12 | 7.13 µM (inactive) | 8.38 µM (inactive) | 4.98 µM (inactive) | 15.3 µM (inactive) | 25.6 µM (inactive) | 6.56 µM (inactive) | 10.8 µM (inactive) |  | 28.7 µM (inactive) | 9.33 µM (inactive) | 12.3 µM (inactive) | 10.1 µM (inactive) | 26.8 µM (inactive) |  |  |  | 13.2 µM (inactive) | 9.93 µM (inactive) | 12.5 µM (inactive) |
| CCNC(=O)CCC(C)[C@H]1CCC2C3C(C[C@H](OC(C)=O)[C@@]21C)[C@@]1(C)CCC2(C[C@H]1C[C@H]3OC(C)=O)OOC1(CCC(C)CC1)OO2 (stereo partly drawn) | 2.38 µM (inactive) and 1.58 µM (inactive) | 1.73 µM (inactive) and 2.37 µM (inactive) | 1.94 µM (inactive) and 1.79 µM (inactive) | 1.35 µM (inactive) and 1.41 µM (inactive) | 3.8 µM (inactive) | 1.83 µM (inactive) and 2.05 µM (inactive) | 2.73 µM (inactive) and 2.14 µM (inactive) | 2.56 µM (inactive) and 2.7 µM (inactive) | 1.88 µM (inactive) and 2.65 µM (inactive) | 1.47 µM (inactive) and 1.22 µM (inactive) | 3.31 µM (inactive) and 1.73 µM (inactive) |  | 3.82 µM (inactive) and 2 µM (inactive) | 1.67 µM (inactive) and 1.61 µM (inactive) | 6.38 µM (inactive) and 4.21 µM (inactive) | 1.43 µM (inactive) and 1.68 µM (inactive) | 4.63 µM (inactive) and 2.62 µM (inactive) | 1.02 µM (active) and 1.35 µM (inactive) | 2.62 µM (inactive) and 2.68 µM (inactive) |
| Cn1c2ccccc2c2c(=O)[nH]c(=O)[nH]c21 | > 100 µM (inactive) | > 100 µM (inactive) | > 100 µM (inactive) | > 100 µM (inactive) | > 100 µM (inactive) | > 100 µM (inactive) | > 100 µM (inactive) | > 100 µM (inactive) | > 100 µM (inactive) | > 100 µM (inactive) | > 100 µM (inactive) |  | > 100 µM (inactive) | > 100 µM (inactive) | > 100 µM (inactive) | > 100 µM (inactive) | > 100 µM (inactive) | > 100 µM (inactive) | > 100 µM (inactive) |
| CCSC1=N/C(=C\c2ccco2)C(=O)N1 | > 100 µM (inactive) | > 100 µM (inactive) | > 100 µM (inactive) | 74.8 µM (inactive) | > 100 µM (inactive) | > 100 µM (inactive) | > 100 µM (inactive) | 6.59 µM (inactive) | > 100 µM (inactive) | > 100 µM (inactive) | > 100 µM (inactive) | > 100 µM (inactive) | > 100 µM (inactive) | > 100 µM (inactive) | 70.8 µM (inactive) |  |  | > 100 µM (inactive) | > 100 µM (inactive) |
| N#Cc1c(O)c(/C=N/c2ncccn2)c(=O)n2c1[nH]c1ccccc12 | > 100 µM (inactive) |  | > 100 µM (inactive) | > 100 µM (inactive) | > 100 µM (inactive) | > 100 µM (inactive) | > 100 µM (inactive) | 88.9 µM (inactive) | > 100 µM (inactive) | > 100 µM (inactive) | > 100 µM (inactive) | > 100 µM (inactive) | > 100 µM (inactive) | > 100 µM (inactive) | > 100 µM (inactive) | > 100 µM (inactive) | > 100 µM (inactive) | > 100 µM (inactive) | > 100 µM (inactive) |
| O=C1CC(c2cccc([N+](=O)[O-])c2)C2(C(=O)NC(=O)NC2=O)C(c2cccc([N+](=O)[O-])c2)C1 (stereo not drawn) | > 100 µM (inactive) | 64.4 µM (inactive) | 20.1 µM (inactive) | 60.7 µM (inactive) | 67.6 µM (inactive) | 36.8 µM (inactive) | > 100 µM (inactive) | 17.3 µM (inactive) | > 100 µM (inactive) | 78.2 µM (inactive) | > 100 µM (inactive) | 69.7 µM (inactive) | 34.5 µM (inactive) | > 100 µM (inactive) | > 100 µM (inactive) |  | > 100 µM (inactive) | 88.3 µM (inactive) | > 100 µM (inactive) |
| NCCCC[C@H](N)C(=O)Nc1ccc(-c2nc3ccccc3s2)cc1 | 18.1 µM (inactive) | 21.7 µM (inactive) | 19 µM (inactive) | 16.7 µM (inactive) | 19.6 µM (inactive) | 24.8 µM (inactive) | 12.6 µM (inactive) |  | 15.7 µM (inactive) | 17 µM (inactive) | 21.6 µM (inactive) | 25.6 µM (inactive) | 15.7 µM (inactive) | 33.4 µM (inactive) | 16.7 µM (inactive) | 33.7 µM (inactive) | 70 µM (inactive) | 12.7 µM (inactive) | 23.1 µM (inactive) |
| COc1cccc(C2SCC(=O)N2c2ccc(-c3ccc(-n4c(-c5ccccc5)nc5ccccc5c4=O)cc3)cc2)c1OC (stereo not drawn) | > 100 µM (inactive) | > 100 µM (inactive) | 59.8 µM (inactive) | 99.1 µM (inactive) | 73.6 µM (inactive) | 50.7 µM (inactive) | > 100 µM (inactive) | 25.2 µM (inactive) |  | > 100 µM (inactive) | > 100 µM (inactive) | > 100 µM (inactive) | > 100 µM (inactive) | 30.1 µM (inactive) | > 100 µM (inactive) | 24.5 µM (inactive) | > 100 µM (inactive) | 32.8 µM (inactive) | 58.9 µM (inactive) |
| c1cc(-c2cn[nH]c2)cc(-c2cn[nH]c2)c1 | 37.3 µM (inactive) |  | 20.2 µM (inactive) | 51.2 µM (inactive) | 43 µM (inactive) | 36.8 µM (inactive) | 44.6 µM (inactive) |  |  | 27.2 µM (inactive) |  |  | 39.8 µM (inactive) | 32.6 µM (inactive) | 61.1 µM (inactive) |  | 90.8 µM (inactive) | 16 µM (inactive) |  |
| N#CCCC1(CCC#N)CCc2ccccc2C1=O | > 100 µM (inactive) | > 100 µM (inactive) | > 100 µM (inactive) | > 100 µM (inactive) | > 100 µM (inactive) | > 100 µM (inactive) | > 100 µM (inactive) | > 100 µM (inactive) | > 100 µM (inactive) | > 100 µM (inactive) | > 100 µM (inactive) | > 100 µM (inactive) |  | > 100 µM (inactive) | > 100 µM (inactive) | > 100 µM (inactive) | > 100 µM (inactive) | > 100 µM (inactive) |  |
| CN(Cc1cnc2nc(N)nc(N)c2n1)c1ccc(C(=O)NC(CCS(=O)(=O)O)C(=O)O)cc1 (stereo not drawn) | 0.132 µM (active) |  | 0.0745 µM (active) | 0.553 µM (active) |  | 0.103 µM (active) | 0.682 µM (active) | 0.268 µM (active) | 0.35 µM (active) | 0.527 µM (active) | 2.31 µM (inactive) | 0.0665 µM (active) | 0.681 µM (active) | 1.79 µM (inactive) | 7.16 µM (inactive) | > 100 µM (inactive) | > 100 µM (inactive) | 2.72 µM (inactive) | > 100 µM (inactive) |
